Test results taken from article PMC9585728, “Antiviral activity and mechanism of the antifungal drug, anidulafungin, suggesting its potential to promote treatment of viral diseases” (BMC Medicine, 2022).
“And” between values parts separate entries of the source, which are not always exact repeats. Equal values may be shown once. “Also recorded” adds a separate entry of the source. Starred links: 1 amine or outer side, 2 acyl side, 3 side chain; linkers in the order of their positions; H or OH if unused. Positions of bridges follow the written chain, without caps; N, C: chain ends. Non-standard residues stand in square brackets, D forms with d. Residues, ends and D or L forms follow the SMILES beside them. *: point of attachment. hTyr(3S-OH,4S-OH,3'-OSO3H) = N[C@H](C(=O)O)[C@H](O)[C@@H](O)c1ccc(O)c(OS(=O)(=O)O)c1; pTerphenylCO(4''-OnC5H11) = CCCCCOc1ccc(-c2ccc(-c3ccc(C(=O)*)cc3)cc2)cc1; Orn(4R-OH,5R-OH) = O=C([C@H](C[C@@H](O)[C@@H](O)N[*:3])N[*:1])[*:2]; hTyr(3S-OH,4S-OH) = N[C@H](C(=O)O)[C@H](O)[C@@H](O)c1ccc(O)cc1; Pro(3S-OH,4S-Me) = C[C@H]1CN[C@H](C(=O)O)[C@H]1O; X1 = CCCCCOc1ccc(-c2cc(-c3ccc(C(=O)*)cc3)no2)cc1; Gln(3R-OH) = NC(=O)C[C@@H](O)[C@H](N)C(=O)O; Hyp = O=C(O)[C@@H]1C[C@@H](O)CN1

Experiments:
SFTSV [1] = experiment: microbe, parasite or virus in culture; assay type: cell-based, severe fever with thrombocytopenia syndrome virus; conditions: for IC50 / IC90: Severe fever with thrombocytopenia syndrome virus, Vero, 24 h
in vitro = conditions: African green monkey
SFTSV [2] = experiment: microbe, parasite or virus in culture; assay type: cell-based, severe fever with thrombocytopenia syndrome virus
SFTSV [3] = assay type: cell-based, severe fever with thrombocytopenia syndrome virus
DENV = conditions: inhibition of DENV infection; cited from earlier work
SARS-CoV-2 = experiment: microbe, parasite or virus in culture; assay type: cell-based, severe acute respiratory syndrome coronavirus 2
GTV = experiment: microbe, parasite or virus in culture; assay type: cell-based, Guertu virus
HRTV = experiment: microbe, parasite or virus in culture; assay type: cell-based, Heartland virus
ZIKV = experiment: microbe, parasite or virus in culture; assay type: cell-based, Zika virus
CCHFV = experiment: microbe, parasite or virus in culture; assay type: cell-based, Crimean-Congo hemorrhagic fever virus
HSV-1 = experiment: microbe, parasite or virus in culture; assay type: cell-based, herpes simplex virus 1
SFTSV [4] = assay type: cell-based, severe fever with thrombocytopenia syndrome virus; remark: listed apart in the source
SFTSV [5] = assay type: cell-based, severe fever with thrombocytopenia syndrome virus; remark: listed apart in the source
SFTSV [6] = assay type: cell-based, severe fever with thrombocytopenia syndrome virus; remark: listed apart in the source
SFTSV [7] = assay type: cell-based, severe fever with thrombocytopenia syndrome virus; conditions: pH 5
SFTSV [8] = tested on: SFTSV; design: species or system A129 mice; conditions: mouse, in vivo
[9] = Severe acute respiratory syndrome coronavirus 2, Vero
[10] = Orthonairovirus haemorrhagiae, Vero

Question: Which results are given for `CC(=O)Oc1ccccc1C(=O)Nc1ncc([N+](=O)[O-])s1` [Nitazoxanide]?
Answer: IC50 (SFTSV [1]): 11.1 µM; IC90 (SFTSV [1]): 25.3 µM; CC50 (in vitro): > 100 µM

Question: For `O=C1C(O)=C([C@H]2CC[C@H](c3ccc(Cl)cc3)CC2)C(=O)c2ccccc21` [Atovaqone, Atovaquone], which SI (SFTSV [1]) is on record?
Answer: Its SI is >10.

Question: What about the IC50 (SFTSV [1]) of the same compound?
Answer: The IC50 was 5.06 µM.

Question: And the IC90 (SFTSV [1])?
Answer: Its IC90 is 10.1 µM.

Question: And the CC50 (in vitro)?
Answer: Its CC50 is > 100 µM.

Question: Which “mean inhibition rate of SFTSV infection” value (SFTSV [2]) does the source give for `C[C@@H]1[C@H](O)[C@@H](C)/C=C/C=C/CC/C=C/C=C/C=C/C=C/C(O[C@H]2O[C@H](C)[C@@H](O)[C@H](N)[C@@H]2O)CC2O[C@](O)(CC(O)C(O)CCC(O)CC(O)CC(O)CC(=O)O[C@H]1C)CC(O)C2C(=O)O` (some centres unmarked) [nystatin] here?
Answer: The value was 8.67%.

Question: With `COc1c(C)c2c(c(O)c1C/C=C(\C)CCC(=O)O)C(=O)OC2` [Mycophenolic acid] as the compound, how does the SI (SFTSV [1]) read?
Answer: Its SI is >10.

Question: And the IC50 (SFTSV [1])?
Answer: Its IC50 is 0.47 µM.

Question: And the IC90 (SFTSV [1])?
Answer: Its IC90 is 4.75 µM.

Question: And the CC50 (in vitro)?
Answer: Its CC50 is > 100 µM.

Question: With `Oc1ccc2ccccc2c1SSc1c(O)ccc2ccccc12` [IPA3, p21-activated kinase inhibitor III] as the compound, how does the “mean inhibition rate of SFTSV infection” value (SFTSV [2]) read?
Answer: Its value is 43.22%.

Question: With `COc1cccc(-c2ccc(NC(=O)C3=C(C(=O)O)CCC3)c(F)c2)c1` [Vidofludimus] as the compound, how does the SI (SFTSV [1]) read?
Answer: The SI was >10.

Question: And the IC50 (SFTSV [1])?
Answer: The IC50 was 6.07 µM.

Question: What about the IC90 (SFTSV [1]) of the same compound?
Answer: The IC90 was 14.6 µM.

Question: And the CC50 (in vitro)?
Answer: The CC50 was > 100 µM.

Question: Which results are given for `CCCCCOc1ccc(-c2cc(-c3ccc(C(=O)N[C@H]4C[C@@H](O)[C@@H](O)NC(=O)[C@@H]5[C@@H](O)[C@@H](C)CN5C(=O)[C@H]([C@H](O)CC(N)=O)NC(=O)[C@H]([C@H](O)[C@@H](O)c5ccc(O)c(OS(=O)(=O)O)c5)NC(=O)[C@@H]5C[C@@H](O)CN5C(=O)[C@H]([C@@H](C)O)NC4=O)cc3)no2)cc1` [Micafungin, micafungin] (X1-[Orn(4R-OH,5R-OH)]T[Hyp][hTyr(3S-OH,4S-OH,3'-OSO3H)][Gln(3R-OH)][Pro(3S-OH,4S-Me)]; lactam 1-C)?
Answer: inhibitory effect on SFTSV infection during the entry process (SFTSV [3]): less effective than that exerted by anidulafungin; IC50 (DENV): 10.2 µM

Question: What does the source list for `CC[C@H](C)C[C@H](C)CCCCCCCCC(=O)N[C@H]1C[C@@H](O)[C@@H](NCCN)NC(=O)[C@@H]2[C@@H](O)CCN2C(=O)[C@H]([C@H](O)CCN)NC(=O)[C@H]([C@H](O)[C@@H](O)c2ccc(O)cc2)NC(=O)[C@@H]2C[C@@H](O)CN2C(=O)[C@H]([C@@H](C)O)NC1=O` [caspofungin]?
Answer: inhibitory effect on SFTSV infection during the entry process (SFTSV [3]): limited effect; IC50 (DENV): 20.8 µM

Question: What does the source list for `CCCCCOc1ccc(-c2ccc(-c3ccc(C(=O)N[C@H]4C[C@@H](O)[C@@H](O)NC(=O)[C@@H]5[C@@H](O)[C@@H](C)CN5C(=O)[C@H]([C@@H](C)O)NC(=O)[C@H]([C@H](O)[C@@H](O)c5ccc(O)cc5)NC(=O)[C@@H]5C[C@@H](O)CN5C(=O)[C@H]([C@@H](C)O)NC4=O)cc3)cc2)cc1` [Anidulafungin, anidulafungin] ({pTerphenylCO(4''-OnC5H11)}-[Orn(4R-OH,5R-OH)]T[Hyp][hTyr(3S-OH,4S-OH)]T[Pro(3S-OH,4S-Me)]; lactam 1-C)?
Answer: SI (SFTSV [1]): 13.80; IC50 (SFTSV [1]): 3.02 µM; IC90 (SFTSV [1]): 12.4 µM; SI (SARS-CoV-2): 7.59; IC50 (SARS-CoV-2; [9]): 5.49 µM; IC90 (SARS-CoV-2; [9]): 8.55 µM; SI (GTV): 7.53; IC50 (GTV; Guertu virus, Vero): 5.54 µM; IC90 (GTV; Guertu virus, Vero): 9.62 µM; SI (HRTV): 8.35; IC50 (HRTV; Heartland virus, Vero): 4.99 µM; IC90 (HRTV; Heartland virus, Vero): 9.29 µM; SI (ZIKV): 9.54; IC50 (ZIKV; Zika virus, Vero): 4.37 µM; IC90 (ZIKV; Zika virus, Vero): 6.44 µM; SI (CCHFV): 3.86; IC50 (CCHFV; [10]): 10.8 µM; IC90 (CCHFV; [10]): 24.2 µM; SI (HSV-1): 6.12; IC50 (HSV-1; Human alphaherpesvirus 1, Vero): 6.81 µM; IC90 (HSV-1; Human alphaherpesvirus 1, Vero): 9.12 µM; reduction of intracellular viral RNA copies relative to the control (SFTSV [4]): over 10 times; suppression of the entry of SFTSV strain HBMC5 (SFTSV [3]): as efficiently as the strain WCH; efficacy of virus binding to cells versus vehicle (SFTSV [5]): did not have a significant difference; number of intracellular viral RNA copies (virus internalization) (SFTSV [6]): significantly decreased; number and size of syncytia (fusion ability) (SFTSV [7]): decreased; PLT (median, IQR) (SFTSV [8]): 1054.5 (993.25, 1094) ×10^9/L and 950 (494.5, 1062.75) ×10^9/L and 1141 (1050, 1191) ×10^9/L; WBC (median, IQR) (SFTSV [8]): 4.75 (4.35, 5.465) ×10^9/L and 4.72 (4.31, 6.195) ×10^9/L and 5.76 (5.28, 6.04) ×10^9/L; body weight (SFTSV [8]): maintained; also recorded: slight decrease; clinical signs of illness onset (SFTSV [8]): did not show typical clinical signs of illness onset; histopathological damage in the lung, H&E (SFTSV [8]): significantly ameliorated; kidney lesions (renal tubulointerstitial hemorrhaging, edemas), H&E (SFTSV [8]): slight; liver lesion (ballooning degeneration of hepatocytes), H&E (SFTSV [8]): significantly attenuated; survival rate (SFTSV [8]): 66.7% and 50.0%; IC50 (DENV): 3.24 µM; CC50 (in vitro): 41.7 µM

Question: For `COc1c(C)c2c(c(O)c1C/C=C(\C)CCC(=O)OCCN1CCOCC1)C(=O)OC2` [Mycophenolate mofetil], which SI (SFTSV [1]) is on record?
Answer: The SI was >10.

Question: And the IC50 (SFTSV [1])?
Answer: Its IC50 is 0.57 µM.

Question: And the IC90 (SFTSV [1])?
Answer: The IC90 was 1.52 µM.

Question: And the CC50 (in vitro)?
Answer: Its CC50 is > 100 µM.

Question: Which inhibition at 35 µM (SFTSV [2]; Severe fever with thrombocytopenia syndrome virus, Vero, read-out: mean inhibition rate of SFTSV infection) does the source give for `CN(C)CCCN1c2ccccc2Sc2ccc(Cl)cc21` [CPZ, chlorpromazine] here?
Answer: Its inhibition at 35 µM is 46.1%.
